Results reported in PubChem BioAssay (NCI).
“And” between values parts separate entries of the source, which are not always exact repeats. Equal entries are not always repeated.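 In this assay, cells in 96-well plates receive the compound at five concentrations for 48 hours. Endpoints are linearly interpolated between the surrounding concentrations. Abbreviation: GI50, concentration required for 50% inhibition of growth. TGI marks complete inhibition of growth.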

Columns and labels:
Assay in all cases: growth of human tumour cells (NCI), 48 h
[1] = system: DU-145 prostate
[2] = system: HS 578T breast
[3] = system: HT29 colon
[4] = system: MCF7 breast
[5] = system: BT-549 breast
[6] = system: T-47D breast

SMILES	TGI [1]	TGI [2]	TGI [3]	TGI [4]	TGI [5]	TGI [6]	GI50 [2]	GI50 [3]	GI50 [4]	GI50 [5]	GI50 [6]	GI50 [1]
COc1ccc2c(c1)Cc1cc(N=[N+]([O-])c3ccc4c(c3)Cc3cc(OC)ccc3-4)ccc1-2	> 100 µM	> 100 µM	32.9 µM	64.4 µM	> 100 µM	> 100 µM	–	–	–	–	–	–
COC(=O)C1=C(O)C(C(=O)OC)[C@@]2(O)[C@@H](C(=O)OC)C(c3ccc(OC(=O)C(Cc4ccccc4)NC(C)=O)cc3)C[C@@H]1[C@@H]2C(=O)OC (stereo partly specified)	–	75.3 µM	33.6 µM	95.3 µM	> 100 µM	> 100 µM	20.4 µM	15.6 µM	17 µM	38 µM	39.2 µM	–
CC(=N\O)/C(C)=N/O.CC(=N\O)/C(C)=N/O.[Pd]	> 10 µM	> 10 µM	7.99 µM	> 10 µM	> 10 µM	> 10 µM	1.94 µM	2.77 µM	4.98 µM	8.49 µM	6.19 µM	6.48 µM
COc1cc(C2CC(c3ccc(C)cc3)=NN2C(C)=O)ccc1Oc1ccnc2cc(Cl)ccc12 (stereo unspecified)	> 100 µM	> 100 µM	> 100 µM	> 100 µM	> 100 µM	73.4 µM	2.6 µM	> 100 µM	> 100 µM	3.48 µM	2.28 µM	> 100 µM
COc1ccc(-n2cc(-c3ccc(Cl)cc3)[nH]c2=S)cc1Cl	> 100 µM	56.6 µM	> 100 µM	> 100 µM	55 µM	> 100 µM	23.8 µM	74.2 µM	34.3 µM	20.5 µM	18.4 µM	37.2 µM
CCCCCc1c(C)[nH]c(/C=C2\N=C(c3ccc[nH]3)C=C2Oc2ccc(OC)cc2)c1C	4.38 µM and 1.52 µM	0.701 µM and 0.139 µM	1.94 µM and 1.26 µM	1.21 µM and 1.15 µM	2.6 µM and 2.36 µM	0.968 µM and 1.24 µM	0.15 µM and 0.0228 µM	0.068 µM and 0.0214 µM	0.0667 µM and 0.0358 µM	0.353 µM and 0.246 µM	0.193 µM and 0.0295 µM	0.165 µM and 0.0387 µM
CC(C)n1c2c(c3ccccc3c1=O)C(=O)c1ccccc1-2	> 100 µM	> 100 µM	> 100 µM	> 100 µM	> 100 µM	> 100 µM	–	–	–	–	–	–
C=CC[n+]1c(/C=C2\Sc3ccccc3N2C)sc(-c2ccccc2)c1-c1ccccc1	12.2 µM	19.4 µM	6.1 µM	1.77 µM	0.907 µM	0.782 µM	0.374 µM	0.306 µM	0.286 µM	0.296 µM	0.242 µM	0.439 µM
COc1ccc(-c2ccc(/C=N/n3cnn(CN4CCN(C)CC4)c3=S)o2)c([N+](=O)[O-])c1	> 100 µM	75.4 µM	> 100 µM	97.4 µM	91.8 µM	54.3 µM	22.5 µM	28.4 µM	28.7 µM	27.5 µM	23.1 µM	38.1 µM
CC(=O)c1c[nH]c2ccc(-c3ccnc(Nc4ccc(NC(=O)c5cccc(F)c5)c(CN5CCOCC5)c4)n3)cc12	> 100 µM	1.02 µM	–	1.7 µM	3.97 µM	5.45 µM	0.124 µM	0.146 µM	0.149 µM	0.208 µM	0.223 µM	0.185 µM
Cc1c(Br)cccc1NC(=O)c1sc2nc3c(cc2c1N)CN(Cc1ccccc1)CC3	2.99 µM	15.4 µM	5.25 µM	> 50 µM	25.3 µM	> 50 µM	0.208 µM	0.179 µM	0.17 µM	0.708 µM	0.205 µM	0.168 µM
Cc1ccc(NC(=O)C(=O)C2C(=O)C3=C(CC2(C)C)NC2C=CC=CC2S3)c(C)c1 (stereo unspecified)	> 100 µM	> 100 µM	> 100 µM	> 100 µM	> 100 µM	–	–	–	–	–	–	–
Oc1ccc(Br)cc1CN1CCN(Cc2ccc(Cl)cc2)CC1	> 100 µM	> 100 µM	62.5 µM	94.3 µM	> 100 µM	> 100 µM	28.6 µM	23.2 µM	18.4 µM	38.2 µM	8.9 µM	46.3 µM
CC([C@H]1CCC2C3CCC4C(=O)C(NC=O)=CC[C@]4(C)C3CC[C@@]21C)N(C)C (stereo partly specified)	25.1 µM	20.8 µM	2.37 µM	14.1 µM	21.3 µM	6.57 µM	4.6 µM	0.505 µM	2.43 µM	3.94 µM	1.73 µM	8.07 µM
Nc1nc(Cl)cc2c1ncn2C1OC(CO)C(O)C1O (stereo unspecified)	> 100 µM	> 100 µM	> 100 µM	> 100 µM	> 100 µM	> 100 µM	> 100 µM	> 100 µM	> 100 µM	> 100 µM	> 100 µM	> 100 µM
COC1=CC(=O)c2c(O)c3c(c(O)c2C1=O)CC(C)(O)OC3 (stereo unspecified)	15 µM	35.9 µM	11.6 µM	7.29 µM	18.7 µM	8.38 µM	–	–	–	–	–	–
COc1cc2c(cc1OC)[C@@H]1[C@H](C2=O)c2ccc([N+](=O)[O-])cc2C(=O)N1CCCBr	> 20.4 µM	50.6 µM	–	0.284 µM	23.9 µM	> 100 µM	5.45 µM	0.35 µM	< 0.01 µM	1.96 µM	< 0.01 µM	0.553 µM
COC(=O)c1ccc2c(c1)[n+](=O)c(C(C)=O)c(C(F)(F)F)n2[O-]	3.23 µM	5.84 µM	3.25 µM	3.37 µM	4.51 µM	4.2 µM	2.37 µM	1.73 µM	1.76 µM	2.07 µM	2.06 µM	1.83 µM
O=C1C=Cc2cc3ccccc3c3cccc1c23	> 100 µM	11.7 µM	> 100 µM	37.7 µM	51.9 µM	> 100 µM	4.09 µM	7.29 µM	5.26 µM	9.66 µM	21.2 µM	9.53 µM
COC(=O)C(=O)C(C(=O)C(=O)Nc1ccc(Cl)cc1Cl)c1nc2ccc(Cl)cc2[nH]c1=O (stereo unspecified)	> 100 µM	> 100 µM	> 100 µM	> 100 µM	> 100 µM	–	–	–	–	–	–	–
O=C(NCCc1ccccc1)C(c1csc2ccccc12)N(C(=O)CCl)c1ccc(-c2cnco2)cc1 (stereo unspecified)	2.3 µM	7.2 µM	1.06 µM	3.26 µM	0.574 µM	2.89 µM	1.44 µM	0.257 µM	1.43 µM	0.228 µM	1.02 µM	0.461 µM

SMILES	TGI [1]	TGI [2]	TGI [3]	TGI [4]	TGI [5]	TGI [6]	GI50 [2]	GI50 [3]	GI50 [4]	GI50 [5]	GI50 [6]	GI50 [1]
COc1cccc(-n2cnc3c(N/N=C/c4ccncc4)ncnc32)c1	> 25 µM	> 25 µM	> 25 µM	> 25 µM	> 25 µM	> 25 µM	7.47 µM	8.07 µM	> 25 µM	> 23.8 µM	11.2 µM	17.3 µM
NS(=O)(=O)OC[C@H]1O[C@@H](n2cnc3c(N[C@H]4CCc5ccccc54)ncnc32)[C@H](O)[C@@H]1O	1.36 µM	6.93 µM	5.55 µM	> 100 µM	0.081 µM	1.41 µM	0.432 µM	0.327 µM	0.0736 µM	0.0298 µM	0.156 µM	0.0838 µM
COc1cc(C2C3=C(COC3=O)N(CCO)c3cc4c(cc32)OCCO4)cc(OC)c1O (stereo unspecified)	> 21.7 µM	> 50 µM	> 18.5 µM	> 50 µM	> 27.8 µM	> 50 µM	1.14 µM	1.67 µM	0.957 µM	5.71 µM	3.38 µM	1.71 µM
O=C1/C(=C/c2ccc(F)cc2)CN(Cc2cn(CCNc3ccnc4cc(Cl)ccc34)nn2)C/C1=C\c1ccc(F)cc1	2.63 µM	7.56 µM	2.09 µM	1.75 µM	3.26 µM	4.33 µM	2.33 µM	0.68 µM	0.4 µM	1.85 µM	1.89 µM	1.32 µM
CC(C)=CCNc1ncnc2c1ncn2C1OC(COP(=O)(O)O)C(O)C1O (stereo unspecified)	4.15 µM	21.8 µM	42.5 µM	> 91.3 µM	6.81 µM	25.4 µM	2.67 µM	3.74 µM	1.72 µM	2.43 µM	4.96 µM	1.35 µM
COC(=O)C1=C(O)C(C(=O)OC)[C@@]2(O)[C@@H](C(=O)OC)C(c3ccccc3C(F)(F)F)C[C@@H]1[C@@H]2C(=O)OC (stereo partly specified)	10.9 µM	> 100 µM	5.3 µM	12.1 µM	11.9 µM	5.98 µM	3.87 µM	0.228 µM	2.99 µM	3.08 µM	0.737 µM	3.23 µM
COc1ccc(OC)c(-c2cc(-c3ccc(Cl)cc3)nn2-c2ccc(S(N)(=O)=O)cc2)c1	25.9 µM	63.1 µM	–	26.2 µM	29.4 µM	–	21.9 µM	–	3.9 µM	12.4 µM	–	12.1 µM
OCCOCn1nc(-c2ccccc2)nc1-c1cnccn1	> 100 µM	–	> 100 µM	> 100 µM	> 100 µM	> 100 µM	–	–	–	–	–	–
CC(=O)NC1=NC(=O)/C(=C/c2ccc(Cl)cc2Cl)N1C	> 100 µM	> 100 µM	> 100 µM	> 100 µM	> 100 µM	–	–	–	–	–	–	–
O=C(O)/C=C/C(=O)Nc1cccc2c1-c1ccccc1C2=O	> 81.3 µM	47.5 µM	> 91.9 µM	> 100 µM	> 100 µM	> 100 µM	–	–	–	–	–	–
CN1CCN(c2nc(NCCNc3ccnc4cc(Cl)ccc34)c3ccccc3n2)CC1	–	9.58 µM	4.18 µM	13.9 µM	12.8 µM	4.79 µM	2.74 µM	0.699 µM	1 µM	3.49 µM	1.94 µM	–
N=C(N)c1ccc(-c2ccc(-c3ccco3)o2)cc1	19 µM	24.2 µM	8.47 µM	14.3 µM	19.8 µM	12.7 µM	4.82 µM	2.78 µM	2.08 µM	5.9 µM	2.92 µM	6.25 µM
COc1cc(OC)cc(-c2n[nH]nc2-c2ccc3c(c2)OCO3)c1	> 100 µM	> 100 µM	12.5 µM	> 100 µM	–	–	0.442 µM	0.392 µM	0.0768 µM	–	–	0.346 µM
C=C1c2c(C)nn(-c3ccccc3)c2N(C)C23C[C@@H]1C1(C)c4c(C)nn(-c5ccccc5)c4N(C)C(C)(C[C@H]12)C3 (stereo partly specified)	> 100 µM	80.1 µM	> 100 µM	> 100 µM	> 100 µM	> 100 µM	5.67 µM	3.59 µM	2.99 µM	5.55 µM	2.13 µM	8.7 µM
CC(CC(C)[C@H]1CCC2[C@H]3C(CC[C@@]21C)[C@@]1(C)CCC(O)C[C@H]1C[C@@H]3O)C(=O)O (stereo partly specified)	> 100 µM	–	> 100 µM	> 100 µM	> 100 µM	> 100 µM	–	–	–	–	–	–
O=c1cc(N2CCOCC2)oc2c(-c3ccccc3)cccc12	> 100 µM	> 30.6 µM and 11.4 µM	70.6 µM and 43.8 µM	> 57 µM and 16.1 µM	> 19.8 µM and 76.2 µM	48.7 µM and 8.31 µM	3.16 µM	5.27 µM	–	1.79 µM	3.03 µM	6.73 µM
Cn1c(=O)c2[nH]c(Nc3ccccc3)nc2n(C)c1=O	> 10 µM	–	> 10 µM	> 10 µM	–	> 10 µM	–	–	–	–	–	–
S=c1sc2ccccc2n1CN1CCN(Cc2ccccc2)CC1	> 100 µM	> 100 µM	> 100 µM	> 100 µM	> 100 µM	> 100 µM	–	–	–	–	–	–
O=C(O)CSc1ccn(Cc2ccccc2)c1	> 100 µM	> 100 µM	> 100 µM	> 100 µM	> 100 µM	> 100 µM	–	–	–	–	–	–
CCCCC#Cc1c(I)n(C2OC(CO[Si](C)(C)C(C)(C)C)C3OC(C)(C)OC32)c(=O)[nH]c1=O (stereo unspecified)	12.9 µM	39.6 µM	22.1 µM	–	28.7 µM	–	11.7 µM	8.21 µM	–	14.8 µM	–	3.48 µM
COc1ccc(CNCCN2C(=O)c3ccc4c5c(ccc(c35)C2=O)C(=O)N(CCNCc2ccc(OC)cc2)C4=O)cc1	1.7 µM	4.25 µM	0.403 µM	0.533 µM	1.03 µM	1.42 µM	1.1 µM	0.122 µM	0.181 µM	0.35 µM	0.306 µM	0.468 µM
